Measured values published in ChEMBL document CHEMBL4507319 (2021).

How the values were obtained:
[1] = system: Tyrosine-protein kinase ABL1 (Homo sapiens), P00519 [Q252H]; conditions: Compound concentration 1000.0 nM
[2] = target: Tyrosine-protein kinase receptor Tie-1 (Homo sapiens) (UniProt P35590); conditions: Compound concentration 1000.0 nM
[3] = target: Receptor-type tyrosine-protein kinase FLT3 (Homo sapiens) (UniProt P36888); conditions: Compound concentration 1000.0 nM
[4] = target: T1, Inhibitor of nuclear factor kappa-B kinase subunit epsilon (Homo sapiens) (UniProt Q14164); conditions: Compound concentration 1000.0 nM
T1 sequence (whole entry): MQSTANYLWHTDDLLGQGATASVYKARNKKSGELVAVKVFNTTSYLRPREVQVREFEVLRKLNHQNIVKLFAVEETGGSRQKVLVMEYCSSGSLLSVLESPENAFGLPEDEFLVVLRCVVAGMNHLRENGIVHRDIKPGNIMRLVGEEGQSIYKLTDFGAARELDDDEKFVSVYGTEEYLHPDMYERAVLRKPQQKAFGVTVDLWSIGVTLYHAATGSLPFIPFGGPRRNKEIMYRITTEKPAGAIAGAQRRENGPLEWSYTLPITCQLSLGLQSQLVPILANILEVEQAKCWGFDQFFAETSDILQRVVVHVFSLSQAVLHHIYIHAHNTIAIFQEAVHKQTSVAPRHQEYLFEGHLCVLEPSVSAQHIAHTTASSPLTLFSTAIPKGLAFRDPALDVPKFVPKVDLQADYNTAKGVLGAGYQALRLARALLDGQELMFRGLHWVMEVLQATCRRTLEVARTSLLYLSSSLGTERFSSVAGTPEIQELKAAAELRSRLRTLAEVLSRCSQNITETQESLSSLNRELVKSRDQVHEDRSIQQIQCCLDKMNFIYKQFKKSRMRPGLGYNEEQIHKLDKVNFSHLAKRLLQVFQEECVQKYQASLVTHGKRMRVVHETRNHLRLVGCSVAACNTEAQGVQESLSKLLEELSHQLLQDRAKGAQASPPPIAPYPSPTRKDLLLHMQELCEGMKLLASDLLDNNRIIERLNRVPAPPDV

[5] = target: Peripheral plasma membrane protein CASK (Homo sapiens) (UniProt O14936); conditions: Compound concentration 1000.0 nM
Peripheral plasma membrane protein CASK (Homo sapiens), sequence (O14936 whole entry): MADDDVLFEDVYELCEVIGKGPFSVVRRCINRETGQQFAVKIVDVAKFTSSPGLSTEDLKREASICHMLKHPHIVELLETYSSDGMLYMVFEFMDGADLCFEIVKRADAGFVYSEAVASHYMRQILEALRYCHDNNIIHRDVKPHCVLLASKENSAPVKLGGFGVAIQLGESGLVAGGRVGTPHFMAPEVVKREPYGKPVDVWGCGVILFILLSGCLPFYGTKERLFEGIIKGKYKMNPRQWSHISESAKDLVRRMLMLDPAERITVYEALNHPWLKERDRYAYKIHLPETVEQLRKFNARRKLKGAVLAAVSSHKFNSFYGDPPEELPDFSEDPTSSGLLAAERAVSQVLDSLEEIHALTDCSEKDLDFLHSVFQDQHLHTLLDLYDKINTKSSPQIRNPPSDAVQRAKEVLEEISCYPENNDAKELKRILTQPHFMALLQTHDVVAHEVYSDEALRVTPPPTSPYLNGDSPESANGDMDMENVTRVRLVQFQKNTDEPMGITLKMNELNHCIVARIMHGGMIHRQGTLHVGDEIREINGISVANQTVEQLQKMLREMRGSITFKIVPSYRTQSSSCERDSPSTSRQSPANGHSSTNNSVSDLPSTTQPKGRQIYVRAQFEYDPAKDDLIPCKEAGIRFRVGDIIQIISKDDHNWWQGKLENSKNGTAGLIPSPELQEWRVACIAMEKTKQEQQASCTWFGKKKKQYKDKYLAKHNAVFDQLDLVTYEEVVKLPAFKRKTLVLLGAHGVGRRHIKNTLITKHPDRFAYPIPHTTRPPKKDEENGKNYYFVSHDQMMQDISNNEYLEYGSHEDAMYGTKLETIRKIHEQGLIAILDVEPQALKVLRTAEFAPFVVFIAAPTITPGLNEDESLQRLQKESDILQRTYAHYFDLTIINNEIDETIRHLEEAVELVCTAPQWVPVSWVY

[6] = target: Protein-tyrosine kinase 2-beta (Homo sapiens) (UniProt Q14289); conditions: Compound concentration 1000.0 nM
Protein-tyrosine kinase 2-beta (Homo sapiens), sequence (Q14289 whole entry, looked up): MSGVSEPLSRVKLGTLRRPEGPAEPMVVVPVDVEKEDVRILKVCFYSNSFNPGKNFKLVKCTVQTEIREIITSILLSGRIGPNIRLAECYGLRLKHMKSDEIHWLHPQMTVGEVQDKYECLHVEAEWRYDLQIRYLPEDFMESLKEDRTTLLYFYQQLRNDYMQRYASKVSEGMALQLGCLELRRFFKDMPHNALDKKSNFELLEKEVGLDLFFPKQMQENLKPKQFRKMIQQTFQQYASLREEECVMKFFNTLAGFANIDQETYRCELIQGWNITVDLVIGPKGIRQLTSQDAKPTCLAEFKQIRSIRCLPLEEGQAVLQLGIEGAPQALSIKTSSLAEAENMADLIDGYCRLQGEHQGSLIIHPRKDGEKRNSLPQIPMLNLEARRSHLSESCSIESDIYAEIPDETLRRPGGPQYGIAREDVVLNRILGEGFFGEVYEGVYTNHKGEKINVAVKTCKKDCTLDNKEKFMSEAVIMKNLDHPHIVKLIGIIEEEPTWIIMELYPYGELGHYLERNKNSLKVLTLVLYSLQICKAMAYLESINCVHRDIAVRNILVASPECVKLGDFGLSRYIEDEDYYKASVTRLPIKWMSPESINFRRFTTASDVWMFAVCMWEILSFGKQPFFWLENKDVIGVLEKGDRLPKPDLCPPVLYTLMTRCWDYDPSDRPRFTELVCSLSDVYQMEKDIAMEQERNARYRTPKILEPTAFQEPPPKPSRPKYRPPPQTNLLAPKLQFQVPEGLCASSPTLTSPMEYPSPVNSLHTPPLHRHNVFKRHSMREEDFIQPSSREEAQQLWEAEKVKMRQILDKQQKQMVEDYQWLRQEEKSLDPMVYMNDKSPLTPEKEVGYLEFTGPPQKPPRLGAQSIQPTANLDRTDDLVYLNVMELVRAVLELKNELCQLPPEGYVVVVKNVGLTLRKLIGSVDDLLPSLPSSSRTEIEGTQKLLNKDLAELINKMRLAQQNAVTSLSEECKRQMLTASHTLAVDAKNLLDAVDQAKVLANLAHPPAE

[7] = target: Mitogen-activated protein kinase 7 (Homo sapiens) (UniProt Q13164); conditions: Compound concentration 1000.0 nM
[8] = target: Receptor tyrosine-protein kinase erbB-2 (Homo sapiens) (UniProt P04626); conditions: Compound concentration 1000.0 nM
[9] = target: T2, Dual specificity mitogen-activated protein kinase kinase 7 (Homo sapiens) (UniProt O14733); conditions: Compound concentration 1000.0 nM
T2 sequence (whole entry): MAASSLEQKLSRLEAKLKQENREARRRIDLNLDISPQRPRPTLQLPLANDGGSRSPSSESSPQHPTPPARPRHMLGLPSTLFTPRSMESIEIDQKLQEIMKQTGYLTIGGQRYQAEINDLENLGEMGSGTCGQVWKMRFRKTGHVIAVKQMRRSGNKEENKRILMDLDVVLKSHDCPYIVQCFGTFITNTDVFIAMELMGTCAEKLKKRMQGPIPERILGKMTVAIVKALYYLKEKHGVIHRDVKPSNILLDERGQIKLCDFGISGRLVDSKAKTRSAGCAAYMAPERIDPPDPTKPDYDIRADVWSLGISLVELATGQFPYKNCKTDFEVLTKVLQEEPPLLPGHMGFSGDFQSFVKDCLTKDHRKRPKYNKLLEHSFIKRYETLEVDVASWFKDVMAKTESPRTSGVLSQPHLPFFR

[10] = target: Glycogen synthase kinase-3 beta (Homo sapiens) (UniProt P49841); conditions: Compound concentration 1000.0 nM
[11] = target: BDNF/NT-3 growth factors receptor (Homo sapiens) (UniProt Q16620); conditions: Compound concentration 1000.0 nM
[12] = system: Phosphatidylinositol 4,5-bisphosphate 3-kinase catalytic subunit alpha isoform (Homo sapiens), P42336 [Q546K]; conditions: Compound concentration 1000.0 nM
[13] = system: ALK tyrosine kinase receptor (Homo sapiens), Q9UM73 [L1196M]; conditions: Compound concentration 1000.0 nM
[14] = target: Sodium-dependent serotonin transporter (Homo sapiens) (UniProt P31645); conditions: Compound concentration 10.0 uM
[15] = target: Cyclin-dependent kinase-like 5 (Homo sapiens) (UniProt O76039); conditions: Compound concentration 1000.0 nM
Cyclin-dependent kinase-like 5 (Homo sapiens), sequence (O76039 whole entry): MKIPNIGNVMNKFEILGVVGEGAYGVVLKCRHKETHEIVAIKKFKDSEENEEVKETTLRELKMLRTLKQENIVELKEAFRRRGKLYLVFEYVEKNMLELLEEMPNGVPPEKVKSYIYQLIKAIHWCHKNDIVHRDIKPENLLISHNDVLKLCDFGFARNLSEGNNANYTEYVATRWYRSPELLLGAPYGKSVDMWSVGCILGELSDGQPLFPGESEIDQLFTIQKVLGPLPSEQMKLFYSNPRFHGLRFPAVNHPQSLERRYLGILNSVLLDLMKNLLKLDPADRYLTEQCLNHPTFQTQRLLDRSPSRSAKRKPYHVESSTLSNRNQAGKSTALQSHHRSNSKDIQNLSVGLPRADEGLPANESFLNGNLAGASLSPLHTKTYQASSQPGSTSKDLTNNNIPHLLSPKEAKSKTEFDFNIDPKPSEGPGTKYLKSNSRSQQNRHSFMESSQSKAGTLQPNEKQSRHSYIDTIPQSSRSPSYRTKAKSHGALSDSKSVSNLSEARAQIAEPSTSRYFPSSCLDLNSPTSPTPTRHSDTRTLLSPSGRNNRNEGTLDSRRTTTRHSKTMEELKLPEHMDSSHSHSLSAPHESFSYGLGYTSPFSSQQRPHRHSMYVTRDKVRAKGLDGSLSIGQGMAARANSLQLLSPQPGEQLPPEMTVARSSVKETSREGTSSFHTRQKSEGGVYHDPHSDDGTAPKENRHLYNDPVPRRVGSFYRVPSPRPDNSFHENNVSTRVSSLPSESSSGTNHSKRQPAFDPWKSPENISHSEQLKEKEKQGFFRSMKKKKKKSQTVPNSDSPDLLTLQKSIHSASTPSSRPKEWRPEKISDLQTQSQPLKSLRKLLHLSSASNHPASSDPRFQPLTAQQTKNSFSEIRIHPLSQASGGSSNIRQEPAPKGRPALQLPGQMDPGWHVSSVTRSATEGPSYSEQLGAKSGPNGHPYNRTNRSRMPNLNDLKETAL

[16] = target: 5-hydroxytryptamine receptor 1A (Homo sapiens) (UniProt P08908); conditions: Compound concentration 10.0 uM
5-hydroxytryptamine receptor 1A (Homo sapiens), sequence (P08908 whole entry): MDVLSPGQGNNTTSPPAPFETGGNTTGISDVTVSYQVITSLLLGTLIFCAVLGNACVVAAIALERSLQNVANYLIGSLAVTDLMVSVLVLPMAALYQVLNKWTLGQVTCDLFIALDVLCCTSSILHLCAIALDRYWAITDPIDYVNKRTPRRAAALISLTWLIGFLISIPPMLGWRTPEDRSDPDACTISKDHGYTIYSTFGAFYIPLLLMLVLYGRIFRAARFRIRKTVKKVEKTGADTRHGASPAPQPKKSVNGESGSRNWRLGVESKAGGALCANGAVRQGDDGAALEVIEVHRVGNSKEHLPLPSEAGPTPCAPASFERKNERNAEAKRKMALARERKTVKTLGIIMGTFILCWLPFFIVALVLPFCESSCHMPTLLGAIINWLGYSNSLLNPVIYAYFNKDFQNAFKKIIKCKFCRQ

[17] = target: T3, Inhibitor of nuclear factor kappa-B kinase subunit beta (Homo sapiens) (UniProt O14920); conditions: Compound concentration 1000.0 nM
T3 sequence (whole entry): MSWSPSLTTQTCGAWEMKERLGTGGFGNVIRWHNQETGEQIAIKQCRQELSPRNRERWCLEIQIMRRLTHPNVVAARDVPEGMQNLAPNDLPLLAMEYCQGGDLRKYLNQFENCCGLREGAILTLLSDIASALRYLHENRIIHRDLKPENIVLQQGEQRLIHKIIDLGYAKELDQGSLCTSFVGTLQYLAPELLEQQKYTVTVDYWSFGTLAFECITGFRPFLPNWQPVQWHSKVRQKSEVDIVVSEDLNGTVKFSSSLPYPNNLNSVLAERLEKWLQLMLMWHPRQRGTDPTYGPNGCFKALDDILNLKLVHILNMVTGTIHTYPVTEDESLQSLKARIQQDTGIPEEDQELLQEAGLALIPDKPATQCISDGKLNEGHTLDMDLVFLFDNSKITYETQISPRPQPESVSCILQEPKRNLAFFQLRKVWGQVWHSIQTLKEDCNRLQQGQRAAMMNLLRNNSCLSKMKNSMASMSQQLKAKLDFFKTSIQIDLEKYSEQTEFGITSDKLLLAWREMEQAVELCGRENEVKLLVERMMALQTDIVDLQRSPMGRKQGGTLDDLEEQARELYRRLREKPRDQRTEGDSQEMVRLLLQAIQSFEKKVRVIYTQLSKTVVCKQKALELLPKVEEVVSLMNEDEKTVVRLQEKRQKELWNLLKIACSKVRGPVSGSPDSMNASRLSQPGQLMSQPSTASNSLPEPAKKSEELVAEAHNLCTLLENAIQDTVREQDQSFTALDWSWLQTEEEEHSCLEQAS

[18] = target: Serine/threonine-protein kinase tousled-like 2 (Homo sapiens) (UniProt Q86UE8); conditions: Compound concentration 1000.0 nM
Serine/threonine-protein kinase tousled-like 2 (Homo sapiens), sequence (Q86UE8 whole entry, looked up): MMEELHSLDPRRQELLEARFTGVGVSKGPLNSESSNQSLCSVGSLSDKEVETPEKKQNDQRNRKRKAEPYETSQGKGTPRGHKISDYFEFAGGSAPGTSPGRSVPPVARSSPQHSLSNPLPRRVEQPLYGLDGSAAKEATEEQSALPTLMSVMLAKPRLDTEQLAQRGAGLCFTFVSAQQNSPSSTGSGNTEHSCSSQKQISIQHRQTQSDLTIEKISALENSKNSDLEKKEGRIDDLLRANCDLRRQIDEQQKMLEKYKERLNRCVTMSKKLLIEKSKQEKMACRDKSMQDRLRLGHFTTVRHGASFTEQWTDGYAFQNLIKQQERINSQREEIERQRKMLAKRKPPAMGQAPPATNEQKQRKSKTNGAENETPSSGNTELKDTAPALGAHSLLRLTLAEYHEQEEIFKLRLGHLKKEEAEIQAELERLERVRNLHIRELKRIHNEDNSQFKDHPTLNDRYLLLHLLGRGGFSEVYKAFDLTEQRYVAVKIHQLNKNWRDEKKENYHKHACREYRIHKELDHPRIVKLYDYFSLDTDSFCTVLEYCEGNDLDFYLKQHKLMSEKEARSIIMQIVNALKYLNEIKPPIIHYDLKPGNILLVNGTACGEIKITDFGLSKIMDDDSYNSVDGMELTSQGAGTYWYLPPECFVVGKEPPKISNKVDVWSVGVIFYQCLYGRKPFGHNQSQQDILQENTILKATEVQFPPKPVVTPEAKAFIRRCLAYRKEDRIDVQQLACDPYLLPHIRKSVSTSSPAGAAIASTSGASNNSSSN

[19] = system: Mast/stem cell growth factor receptor Kit (Homo sapiens), P10721 [A829P]; conditions: Compound concentration 1000.0 nM

Receptor-type tyrosine-protein kinase FLT3 (Homo sapiens), sequence (P36888 whole entry): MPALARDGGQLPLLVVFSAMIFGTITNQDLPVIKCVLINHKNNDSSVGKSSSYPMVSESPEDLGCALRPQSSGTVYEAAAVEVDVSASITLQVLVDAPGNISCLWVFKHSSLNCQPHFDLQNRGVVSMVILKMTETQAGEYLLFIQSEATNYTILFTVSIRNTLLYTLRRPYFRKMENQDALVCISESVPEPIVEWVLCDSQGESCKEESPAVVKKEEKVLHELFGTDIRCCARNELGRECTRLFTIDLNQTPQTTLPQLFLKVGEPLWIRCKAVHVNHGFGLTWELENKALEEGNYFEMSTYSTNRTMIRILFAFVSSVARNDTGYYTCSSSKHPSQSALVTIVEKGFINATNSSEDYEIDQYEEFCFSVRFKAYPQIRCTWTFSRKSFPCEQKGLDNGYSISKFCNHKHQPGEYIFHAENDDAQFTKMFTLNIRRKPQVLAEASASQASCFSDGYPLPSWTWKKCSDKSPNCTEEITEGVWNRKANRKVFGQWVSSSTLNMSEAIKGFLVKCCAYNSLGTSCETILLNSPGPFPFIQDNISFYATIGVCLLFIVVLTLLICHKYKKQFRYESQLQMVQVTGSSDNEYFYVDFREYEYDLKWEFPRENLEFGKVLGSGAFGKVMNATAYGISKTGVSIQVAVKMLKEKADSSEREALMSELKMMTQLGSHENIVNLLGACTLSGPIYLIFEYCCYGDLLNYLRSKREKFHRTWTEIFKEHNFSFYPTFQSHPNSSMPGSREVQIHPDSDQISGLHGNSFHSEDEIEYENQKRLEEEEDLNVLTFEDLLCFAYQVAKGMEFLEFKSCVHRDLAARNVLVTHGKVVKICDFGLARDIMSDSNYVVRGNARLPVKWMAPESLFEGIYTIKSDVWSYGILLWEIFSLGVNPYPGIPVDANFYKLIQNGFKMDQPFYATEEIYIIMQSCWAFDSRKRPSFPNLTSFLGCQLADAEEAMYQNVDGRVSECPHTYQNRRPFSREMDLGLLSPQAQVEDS

| Structure (SMILES) | residual activity [1] [%] | residual activity [2] [%] | residual activity [3] [%] | residual activity [4] [%] | residual activity [5] [%] | residual activity [6] [%] | residual activity [7] [%] | residual activity [8] [%] | residual activity [9] [%] | residual activity [10] [%] | residual activity [11] [%] | residual activity [12] [%] | residual activity [13] [%] | inhibition [14] [%] | residual activity [15] [%] | inhibition [16] [%] | residual activity [17] [%] | residual activity [18] [%] | residual activity [19] [%] |
| --- | --- | --- | --- | --- | --- | --- | --- | --- | --- | --- | --- | --- | --- | --- | --- | --- | --- | --- | --- |
| CCc1ccccc1C(=O)Nc1n[nH]c2c(C)c(F)c(C3C(C#N)=C(C)N(C)C(C)=C3C#N)cc12 [BAY-3827] | 99 | 100 | 16 | 68 | 81 | 92 | 86 | 71 | 100 | 100 | 100 | 39 | 83 | -6.24 | 100 | 5.2 | 94 | 100 | 100 |
| CC1=C(C#N)C(c2ccc3c(c2)c(NC(=O)c2ccccc2C)nn3C)C(C#N)=C(C)N1 [BAY-974] | 73 | 94 | 90 | 100 | 67 | 83 | 100 | 86 | 65 | 81 | 72 | 87 | 80 | -6.29 | 79 | 8.55 | 95 | 100 | 64 |
